In patent US8969405B2, “Anticancer compounds and methods of making and using same” (St. Jude Children's Research Hospital, priority 2008, dated 2015):

What was measured:
[1] = tested on: JeKo-1 mantle cell lymphoma cell line; assay: In vitro cytotoxicity analysis (XTT), 72-hour exposure; type: cell-based; conditions: Homo sapiens, JEKo1 cells
Description: (§1) Briefly, cell lines were seeded at various cell densities depending on the cell type.
(§2) Tables 1-3 display cytotoxicity data for exemplary compounds following a 72-hour exposure.

[2] = tested on: PC-3 prostate cancer cell line; assay: as above; type: cell-based; conditions: Homo sapiens, PC3 cells
Description: as §1, §2

NOD/SCID mice = assay: Mouse maximum tolerated dose (MTD) study; type: in vivo; conditions: for fatality: daily for five days, three mice per group
Description: The mice were monitored for one week following compound administration. […] There was one fatality in the IP 25 mg/kg and one in the IV 50 mg/kg groups.

[3] = tested on: JeKo-1 mantle cell lymphoma tumors; assay: In vivo efficacy study, JeKo-1 tumor-bearing mice
Description: Arrows indicate the dosing schedule. The data are represented as mean±SEM.
Studies were carried out to determine whether the above doses were capable of inhibiting tumor growth in mice (FIG. 4). […] A widely used criterion for determining antitumor activity is tumor growth inhibition (T/C). This value is calculated by dividing the median tumor volumes of treated mice by the median volumes in control mice.

[4] = Stability study in buffer solution by HPLC; type: physicochemical; conditions: 100 μM in PBS buffer and DMSO (2:1)
Description: Stability studies were performed for exemplary compounds 48 and 15. A 100 μM solution of compound 48 was prepared in buffer (PBS, pH 7.4) and warfarin was used as an internal standard. A sample was injected into a HPLC periodically starting at day 0 and ending at about 6 weeks to find out the stability of compound 48 in PBS solution. […] After 6 weeks, 58% of compound 48 remained in the buffer solution.

cell cycle = conditions: reported in the literature; cited from earlier work
[5] = tested on: experimental tumors in mice; conditions: reported, Nakajima et al. 1996; cited from earlier work

Row | Compound | IC50 [1] | IC50 [2] | fatality (NOD/SCID mice; IP 25 mg/kg group) | fatality (NOD/SCID mice; IV 50 mg/kg group) | blood cell counts in treated versus vehicle-only mice (NOD/SCID mice; NOD/SCID mice, 5-50 mg/kg daily for five days, IV and IP) | weight loss (NOD/SCID mice; NOD/SCID mice, 5-50 mg/kg daily for five days, IV and IP, monitored one week after dosing) | total necropsies, organ histologies (NOD/SCID mice; NOD/SCID mice, treatment and vehicle-only groups) | fatalities or weight loss in efficacy study ([3]; 5, 10, 25, or 50 mg/kg IV daily for five consecutive days) | tumor volumes compared to vehicle-treated mice ([3]; 10, 25, or 50 mg/kg IV daily for five consecutive days from day 4) | compound remaining in the buffer ([4]; after 6 weeks) | half-life at 100 μM ([4]; read-out: calculated half life (converted)) | effect on the cell cycle (cell cycle) | activity in in vivo cancer animal models [5]
1 | CC(/C=C/[C@@H]1C[C@]2(CO2)CC(C)(C)O1)=C\C[C@H]1CC[C@@H](NC(=O)/C=C\[C@H](C)OC(=O)C(C)C)CC1 [Compound 15, (S,Z)-5-((1R,4R)-4-((2E,4E)-5-((3R,5S)-7,7-dimethyl-1,6-dioxaspiro[2.5]octan-5-yl)-3-methylpenta-2,4-dienyl)cyclohexylamino)-5-oxopent-3-en-2-yl isobutyrate] | 40 nM | 1900 nM | one | one | No significant differences | No significant weight loss | no significant toxicities | No fatalities or significant weight loss | statistically significant decreases | 53% | 50.6 days |  | 
2 | CC[C@H](O)[C@@H](C)[C@H]1O[C@@H]1C[C@H](C)/C=C/C=C(\C)[C@H]1OC(=O)C[C@H](O)CC[C@@](C)(O)[C@@H](OC(C)=O)/C=C/[C@@H]1C [pladienolide] |  |  |  |  |  |  |  |  |  |  |  | cell cycle arrest at the G1 and G2/M phases | 
3 | CC(=O)O[C@@H](C)/C=C\C(=O)N[C@@H]1C[C@H](C)[C@H](C/C=C(C)/C=C/[C@H]2O[C@](C)(O)C[C@@]3(CO3)[C@@H]2O)O[C@@H]1C [FR901464] |  |  |  |  |  |  |  |  |  |  |  | cell cycle arrest at the G1 and G2/M phases | showed activity
